Data from patent EP0751957B1, “PEPTIDE FRAGMENTS OF MICROBIAL STRESS PROTEINS AND PHARMACEUTICAL COMPOSITION MADE THEREOF FOR THE TREATMENT AND PREVENTION OF INFLAMMATORY DISEASES” (priority 1994, dated 2004).

Columns and labels:
[1] = system: Peptide-specific T cell lines; assay: T cell proliferation assay, peptide-specific T cell lines from peptide-immunised rats; assay type: cell-based, Lewis rats; details: for CPM T Cell Line: in vitro peptide 10 µg/ml
Description: (§1) T cell proliferation assays: PLNC were cultured in triplicate in 200 µl flat bottom microtitre wells (Costar) at 2 x 10^5 cells per well with or without antigen. In initial experiments PLNC were tested for responsiveness to individual peptides at concentrations of 5 and 20 µg/ml, and Mt, hsp65 and PPD over a range of concentrations. Concanavalin A (2 µg/ml) was used as a positive control for T cell proliferation. Cultures were incubated for 96 h at 37°C in a humidified atmosphere of 5% CO2. Cultures were pulsed for the final 16 h with [^3H] TdR (Amersham, U.K., 1 uCi/well) and TdR uptake measured using a liquid scintillation β counter. Assays using T cell lines were performed as above using 2 x 10^4 line cells per well with irradiated (30 Gy) syngeneic accessory cells (either 3 x 10^5 splenocytes/well or 10^6 thymocytes/well). Results are expressed as mean counts per minute (cpm) of triplicate cultures. In experiments where responses to Ag were low, responses were considered significant if the stimulation index (S.I. = […]) was greater than two and Student's t tests gave p < 0.01.
T cell lines: T cell lines with specificity for mycobacterial hsp65 or peptides were generated by bulk stimulation of either hsp65-PLNC or Mt-PLNC. PLNC were cultured at 5 x 10^6/ml in culture medium supplemented with 2% normal rat serum (NRS) in the presence of 10 µg/ml Ag. After three days viable cells were harvested using a ficoll-isopaque gradient and cultured for a further four days in culture medium + 5% FCS and 5% TCGF (Con A-activated rat spleen supernatant). Seven days after initial stimulation lines were restimulated with irradiated spleen accessory cells and 10 µg/ml Ag in culture medium + NRS. Lines were maintained ir. this seven day restimulation cycle. Short term epitope-specific T cell lines were also generated from rats immunised with synthetic peptides. Peptide-PLNC were cultured as above in the presence of 10 µg/ml peptide.
Bulk stimulation generated T cell lines to eight of the nine peptides tested. These eight lines were tested for specificity after four in vitro restimulations (Table II). All responded to the immunising peptide and, to some extent, to hsp65.
(§2) T cell responses by immunisation with hsp65 peptides. Rats were immunised with synthetic peptides containing individual hsp65 epitopes (100 µg peptide/DDA per rat). Ten days later PLNC were isolated and tested for responses to overlapping peptides (20 µg/ml). Peptide-specific T cell lines were generated by bulk in vitro stimulation of PLNC with immunising peptide. Lines were tested for responses to overlapping peptides (10 µg/ml). […] Results are expressed as mean cpm of triplicate cultures. All SEM were less than 20%.

[2] = system: primed lymph node cells (PLNC); assay: T cell proliferation assay, PLNC from peptide-immunised rats; assay type: cell-based, Lewis rats; details: for CPM PLNC: in vitro peptide 20 µg/ml
Description: Immunisations with synthetic peptides and primed lymph node populations: Rats were immunised with 50 µg of synthetic peptide in PBS/DDA in each hind footpad (i.e. 50 µg/footpad, 100 µg/rat). Ten days later, draining popliteal lymph nodes were removed, disaggregated, washed three times and used as a source of primed lymph node cells (PLNC). In some experiments, PLNC were derived as pooled inguinal and popliteal lymph nodes from AA rats 35-42 days post Mt immunisation.
as §1
To determine whether immunisation of rats with synthetic peptides was effective at priming for T cell reactivity to hsp65 epitopes, in vitro proliferative responses following immunisation with 100 µg of peptide each containing individual T cell epitopes were examined. PLNC isolated ten days after immunisation were tested for response to the immunising peptide, overlapping peptides and to hsp65 (Table II). PLNC responses were observed after immunisation with seven of the nine peptides. Responses were not seen after immunisation with peptides 386-400 and 511-525.
as §2

[3] = target: RT1.B^1 MHC class II molecule (rat (Lewis)); assay: cell-based or functional assay
[4] = system: hsp65-specific T cell line; assay: T cell proliferation assay, hsp65-specific T cell line; assay type: cell-based, Lewis rats; details: short term lines from ten day hsp65-PLNC, seven days after first restimulation
Description: as §1
T cell lines: T cell lines with specificity for mycobacterial hsp65 or peptides were generated by bulk stimulation of either hsp65-PLNC or Mt-PLNC. PLNC were cultured at 5 x 10^6/ml in culture medium supplemented with 2% normal rat serum (NRS) in the presence of 10 µg/ml Ag. […]

hsp65-PLNC = assay: T cell proliferation assay, hsp65-PLNC; assay type: cell-based, Lewis rats; details: PLNC from hsp65-immunised rats; peptides 5 and 20 µg/ml
Description: Immunisations and primed lymph node populations: Rats were immunised with either Mt or hsp65. Mt was suspended at 5 mg/ml in IFA or DDA and 100 µl injected in each hind footpad (i.e. 500 µg/footpad, 1 mg/rat). Hsp65 (1 mg/ml in PBS) was mixed 1:1 with DDA and 100 µl injected (i.e. 50 µg/footpad, 100 µg/rat). Ten to 21 days later, draining popliteal lymph nodes were removed, disaggregated, washed three times and used as a source of primed lymph node cells (PLNC). In control experiments splenocytes and lymph nodes from unimmunised rats and PLNC from rats immunised with IFA or DDA/PBS alone were used.
as §1
Hsp65-PLNC were analysed for responsiveness to a panel of peptides covering the entire sequence of hsp65 (Fig. 3a). […] In terms of magnitude of response, three regions of the molecule (residues 176-190, 211-230 and 221-240) appeared to contain the "dominant" T cell epitopes, while regions 86-100. 251-270, 396-410 and 506-525 contained "subdominant" or minor epitopes.

[5] = T cell line from 226-240-immunised PLNC
[6] = PLNC 10 days after immunisation with peptide 226-240 (100 µg/DDA)
[7] = T cell line from 446-460-immunised PLNC
[8] = PLNC 10 days after immunisation with peptide 446-460 (100 µg/DDA)
[9] = T cell line from 396-410-immunised PLNC
[10] = PLNC 10 days after immunisation with peptide 396-410 (100 µg/DDA)
[11] = T cell line from 511-525-immunised PLNC
[12] = PLNC 10 days after immunisation with peptide 511-525 (100 µg/DDA)
[13] = T cell line from 176-190-immunised PLNC
[14] = PLNC 10 days after immunisation with peptide 176-190 (100 µg/DDA)
[15] = T cell line from 86-100-immunised PLNC
[16] = PLNC 10 days after immunisation with peptide 86-100 (100 µg/DDA), mean of triplicates
[17] = T cell line from 256-270-immunised PLNC
[18] = PLNC 10 days after immunisation with peptide 256-270 (100 µg/DDA)
[19] = T cell line from 211-225-immunised PLNC
[20] = PLNC 10 days after immunisation with peptide 211-225 (100 µg/DDA)

## 231-245: synthetic 15mer, residues 231-245 of mycobacterial hsp65
[1]; [5]
  CPM T Cell Line: 862 cpm
[2]; [6]
  CPM PLNC: 1655 cpm

## mycobacterial hsp65 peptide 446-460
[3]
  reduction of peptide (1 µg/ml) induced T cell line proliferation by anti-RT1.B mAb 0X6 (10 µg/ml): > 70%

## mycobacterial hsp65 peptide 176-190
[3]
  reduction of peptide (1 µg/ml) induced T cell line proliferation by anti-RT1.B mAb 0X6 (10 µg/ml): > 70%

## mycobacterial hsp65 peptide 86-100
[3]
  reduction of peptide (1 µg/ml) induced T cell line proliferation by anti-RT1.B mAb 0X6 (10 µg/ml): > 70%

## 451-465: synthetic 15mer, residues 451-465 of mycobacterial hsp65
[1]; [7]
  CPM T Cell Line: 1283 cpm
[2]; [8]
  CPM PLNC: 2130 cpm

## mycobacterial hsp65 peptide 396-410
[3]
  reduction of peptide (1 µg/ml) induced T cell line proliferation by anti-RT1.B mAb 0X6 (10 µg/ml): > 70%

## 391-405: synthetic 15mer, residues 391-405 of mycobacterial hsp65
[1]; [9]
  CPM T Cell Line: 39335 cpm
[2]; [10]
  CPM PLNC: 2280 cpm

## 516-530: synthetic 15mer, residues 516-530 of mycobacterial hsp65
[1]; [11]
  CPM T Cell Line: 1231 cpm
[2]; [12]
  CPM PLNC: 2821 cpm

## 171-185: synthetic 15mer, residues 171-185 of mycobacterial hsp65
[1]; [13]
  CPM T Cell Line: 1640 cpm
[2]; [14]
  CPM PLNC: 3082 cpm

## mycobacterial hsp65 peptide 226-240
[3]
  reduction of peptide (1 µg/ml) induced T cell line proliferation by anti-RT1.B mAb 0X6 (10 µg/ml): > 70%

## 91-105: synthetic 15mer, residues 91-105 of mycobacterial hsp65
[1]
  response of T cell line generated following immunisation with the 86-100 peptide: responded
[1]; [15]
  CPM T Cell Line: 18444 cpm
[2]; [16]
  CPM PLNC: 1999 cpm

## mycobacterial hsp65 peptide 211-225
[3]
  reduction of peptide (1 µg/ml) induced T cell line proliferation by anti-RT1.B mAb 0X6 (10 µg/ml): > 70%

## mycobacterial hsp65 peptide 511-525
[3]
  reduction of peptide (1 µg/ml) induced T cell line proliferation by anti-RT1.B mAb 0X6 (10 µg/ml): > 70%

## 81-95: synthetic 15mer, residues 81-95 of mycobacterial hsp65 (DDVAGDGTTTATVLA; UniProt P9WPE7 81-95, looked up, fragment)
[1]
  response of T cell line generated following immunisation with the 86-100 peptide: responded
[1]; [15]
  CPM T Cell Line: 15785 cpm
[2]; [16]
  CPM PLNC: 15296 cpm

## mycobacterial hsp65 peptide 256-270
[3]
  reduction of peptide (1 µg/ml) induced T cell line proliferation by anti-RT1.B mAb 0X6 (10 µg/ml): > 70%

## 506-520: synthetic 15mer, residues 506-520 of mycobacterial hsp65
[1]; [11]
  CPM T Cell Line: 61293 cpm
[2]; [12]
  CPM PLNC: 2754 cpm

## peptide 386-400: synthetic 15mer, residues 386-400 of mycobacterial hsp65
[4]
  hsp65-specific T cell line response to peptide: did stimulate
hsp65-PLNC
  hsp65-PLNC proliferative response to peptide: failed to stimulate
[2]; 100 µg peptide, PLNC isolated ten days after immunisation
  PLNC responses after immunisation with the peptide: not seen

## 261-275: synthetic 15mer, residues 261-275 of mycobacterial hsp65
[1]; [17]
  CPM T Cell Line: 646 cpm
[2]; [18]
  CPM PLNC: 2553 cpm

## 251-265: synthetic 15mer, residues 251-265 of mycobacterial hsp65
[1]; [17]
  CPM T Cell Line: 66063 cpm
[1]; irradiated syngeneic spleen APC
  response of the line generated against M.256-270 (line P.m52): responded
[2]; [18]
  CPM PLNC: 6391 cpm

## 221-235: synthetic 15mer, residues 221-235 of mycobacterial hsp65
[1]; [5]
  CPM T Cell Line: 100306 cpm
[2]; [6]
  CPM PLNC: 7381 cpm

## 181-195: synthetic 15mer, residues 181-195 of mycobacterial hsp65
[1]; [13]
  CPM T Cell Line: 1653 cpm
[2]; [14]
  CPM PLNC: 1916 cpm

## 216-230: synthetic 15mer, residues 216-230 of mycobacterial hsp65
[1]; [19]
  CPM T Cell Line: 102341 cpm
[2]; [20]
  CPM PLNC: 11117 cpm

## peptide 180-188: synthetic 9mer, minimal AA-associated epitope 180-188 of mycobacterial hsp65 (TFGLQLELT; UniProt P9WPE7 180-188, looked up, fragment) [reference compound]
[1]; [13]
  CPM T Cell Line: 23275 cpm
hsp65-PLNC
  hsp65-PLNC proliferative response to peptide: induce responses, but at a lower level
[2]; [14]
  CPM PLNC: 7859 cpm

## 401-415: synthetic 15mer, residues 401-415 of mycobacterial hsp65 (AKAAVEEGIVAGGGV; UniProt P9WPE7 401-415, looked up, fragment)
[1]; [9]
  CPM T Cell Line: 2011 cpm
[2]; [10]
  CPM PLNC: 3211 cpm

## 206-220: synthetic 15mer, residues 206-220 of mycobacterial hsp65
[1]; [19]
  CPM T Cell Line: 988 cpm
[2]; [20]
  CPM PLNC: 645 cpm

## 441-455: synthetic 15mer, residues 441-455 of mycobacterial hsp65
[1]; [7]
  CPM T Cell Line: 17805 cpm
[2]; [8]
  CPM PLNC: 4715 cpm
